Values after ≈ are worked out from the molar mass of the structure shown. Read-outs that look alike come from different tables or passages of the source.
Key:
S. aurues DHFR = S. aurues DHFR (Staphylococcus aureus, UniProt P0A017); assay: biochemical; type: biochemical
human DHFR = human DHFR (Homo sapiens (Human), UniProt P00374); assay: DHFR enzymatic inhibition (Ki), human DHFR; type: biochemical
S. aureus = assay: Antibacterial activity (MIC), whole-cell bacterial growth inhibition; type: cell-based, Staphylococcus aureus; details: Staphylococcus aureus
Text: Antibacterial activity as measured by the minimal inhibitory concentrations (MIC) and minimal bactericidal concentrations of compounds are well known (see., e.g., National Committee for Clinical Laboratory Standards 2000 Performance standards for antimicrobial disk susceptibility tests: approved standard, 7th ed. M2-A7, vol. 20, no. 1, Committee for Clinical Laboratory Standards, Wayne, Pa.) In vitro testing for antibacterial activity may be accomplished through use of a whole-cell bacterial growth inhibition assay. For example, an […] assay identifies a substance that inhibits bacterial growth. Microtiter plates are prepared with serial dilutions of the test compound, adding to the preparation a given amount of growth substrate, and providing a preparation of bacteria. Inhibition of bacterial growth is determined, for example, by observing changes in optical densities of the bacterial cultures. Inhibition of bacterial growth is determined, for example, by comparing (in the presence and absence of a test compound) the rate of growth or the absolute growth of bacterial cells. Inhibition includes a reduction of one of the above measurements by at least 20%.

[1] = S. aureus in 20% serum, read-out: MIC in μg/ml S. aureus in 20% serum
[2] = S. aureus, read-out: MIC in μg/ml S. aureus

Chain of human DHFR (P00374 whole entry): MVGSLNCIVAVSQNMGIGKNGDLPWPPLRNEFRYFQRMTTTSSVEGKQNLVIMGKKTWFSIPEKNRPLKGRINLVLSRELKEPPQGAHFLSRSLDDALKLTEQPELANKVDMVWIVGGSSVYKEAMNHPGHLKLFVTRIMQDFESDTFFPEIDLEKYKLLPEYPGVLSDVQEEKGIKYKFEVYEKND

SMILES	Ki (S. aurues DHFR) [nM]	Ki (human DHFR) [nM]	MIC (S. aureus; [1]) [µg/mL]	MIC (S. aureus; [2]) [µg/mL]	Ki (S. aurues DHFR; S. aureus DHFR) [nM]
COc1ccccc1-c1ccc2c(N)nc(N)nc2c1 [Compound 1, 7-(2-methoxyphenyl)quinazoline-2,4-diamine]	2.7	1140	4 (≈ 15 µM)	2 (≈ 7.51 µM)	–
Nc1nc(N)c2ccc(-c3ccccc3N)cc2n1 [Compound 2, 7-(2-aminophenyl)quinazoline-2,4-diamine]	–	3920	8 (≈ 31.8 µM)	8 (≈ 31.8 µM)	15.3
COc1ccc(OC)c(-c2ccc3c(N)nc(N)nc3c2)c1 [Compound 3, 7-(2,5-dimethoxyphenyl) quinazoline-2,4-diamine]	4	345	8 (≈ 27 µM)	4 (≈ 13.5 µM)	–
Nc1ccc(-c2ccc3c(N)nc(N)nc3c2)cc1 [Compound 4, 7-(4-aminophenyl)quinazoline-2,4-diamine]	–	702	2 (≈ 7.96 µM)	4 (≈ 15.9 µM)	2.7
Cc1cc2c(N)nc(N)nc2cc1-c1ccc(N)cc1 [Compound 5, 7-(4-aminophenyl)-6-methylquinazoline-2,4-diamine]	–	138	1 (≈ 3.77 µM)	1 (≈ 3.77 µM)	0.89
CC(=O)c1cccc(-c2ccc3c(N)nc(N)nc3c2)c1 [Compound 6, 1-(3-(2,4-diaminoquinazolin-7-yl)-phenyl)ethanone]	–	323	8 (≈ 28.7 µM)	4 (≈ 14.4 µM)	4.4
CC(=O)c1cccc(-c2cc3nc(N)nc(N)c3cc2C)c1 [Compound 7, 1-(3-(2,4-diamino-6-methylquinazolin-7-yl)-phenyl)ethanone]	–	26.3	1 (≈ 3.42 µM)	0.5 (≈ 1.71 µM)	0.48
COc1ccc(OC)c(-c2cc3nc(N)nc(N)c3cc2C)c1 [Compound 8, 7-(2,5-dimethoxyphenyl)-6-methylquin-azoline-2,4-diamine]	0.66	27.5	1 (≈ 3.22 µM)	1 (≈ 3.22 µM)	–
Cc1cc2c(N)nc(N)nc2cc1-c1cccc2[nH]ccc12 [Compound 9, 7-(1H-indol-4-yl)-6-methylquinazoline-2,4-diamine]	–	245	1 (≈ 3.46 µM)	0.25 (≈ 0.864 µM)	0.61
COc1ccc(-c2cc3nc(N)nc(N)c3cc2Cn2ccnc2)cc1OC [Compound 10, 6-((1H-imidazol-1-yl)methyl)-7-(3,4-dimethoxyphenyl)quinazoline-2,4-diamine]	–	53.6	2 (≈ 5.31 µM)	8 (≈ 21.3 µM)	0.51
Cc1cc2c(N)nc(N)nc2cc1-c1cccc(C#N)c1 [Compound 11, 3-(2,4-diamino-6-methylquinazolin-7-yl)benzonitrile]	–	55	2 (≈ 7.26 µM)	1 (≈ 3.63 µM)	1.2
Cc1cc2c(N)nc(N)nc2cc1-c1cc(N)cc(C#N)c1 [Compound 12, 3-amino-5-(2,4-diamino-6-methylquin-azolin-7-yl)benzonitrile]	–	44	1 (≈ 3.44 µM)	1 (≈ 3.44 µM)	0.65
Cc1cc2c(N)nc(N)nc2cc1-c1cccc(CC#N)c1 [Compound 13, 2-(3-(2,4-diamino-6-methylquinazolin-7-yl)-phenyl)acetonitrile]	–	44	2 (≈ 6.91 µM)	0.5 (≈ 1.73 µM)	0.5
COCCn1c(-c2ccc3c(N)nc(N)nc3c2)nc2cc(C)c(C)cc21 [Compound 14, 7-(1-(2-methoxyethyl)-5,6-dimethyl-1H-benzo[d]-imidazol-2-yl)quinazoline-2,4-diamine]	–	263	4 (≈ 11 µM)	4 (≈ 11 µM)	1.6
Cc1cc2nc(C3CC3)n(-c3ccc4c(N)nc(N)nc4c3)c2cc1C [Compound 15, 7-(2-cyclopropyl-5,6-dimethyl-1H-benzo[d]-imidazol-1-yl)quinazoline-2,4-diamine]	–	1160	1 (≈ 2.9 µM)	≤ 0.5	0.14
Cc1cc2nc(-c3ccccn3)n(-c3ccc4c(N)nc(N)nc4c3)c2cc1C [Compound 16, 7-(5,6-dimethyl-2-(pyridin-2-yl)-1H-benzo[d]-imidazol-1-yl)quinazoline-2,4-diamine]	–	572	0.25 (≈ 0.655 µM)	≤ 0.125	0.022
Cc1cc2nc(-c3cccs3)n(-c3ccc4c(N)nc(N)nc4c3)c2cc1C [Compound 18, 7-(5,6-dimethyl-2-(thiophen-2-yl)-1H-benzo[d]-imidazol-1-yl)quinazoline-2,4-diamine]	–	1030	0.5 (≈ 1.29 µM)	≤ 0.125	0.005
Cc1cc2nc(N3CCOCC3)n(-c3ccc4c(N)nc(N)nc4c3)c2cc1C [Compound 19, 7-(5,6-dimethyl-2-morpholino-1H-benzo[d]-imidazol-1-yl)quinazoline-2,4-diamine]	–	1090	4 (≈ 10.3 µM)	1 (≈ 2.57 µM)	0.6
COc1ccc2nc(SCCC(C)(F)F)n(-c3ccc4c(N)nc(N)nc4c3)c2c1 [Compound 20, 7-(2-(3,3-difluorobutylthio)-6-methoxy-1H-benzo-[d]imidazol-1-yl)quinazoline-2,4-diamine]	–	586	4 (≈ 9.29 µM)	0.5 (≈ 1.16 µM)	0.12
Cc1cc2nc(-c3ccsc3)n(-c3ccc4c(N)nc(N)nc4c3)c2cc1C [Compound 21, 7-(5,6-dimethyl-2-(thiophen-3-yl)-1H-benzo[d]-imidazol-1-yl)quinazoline-2,4-diamine]	–	663	0.25 (≈ 0.647 µM)	≤ 0.125	0.012
Cc1cc2nc(-c3nccs3)n(-c3ccc4c(N)nc(N)nc4c3)c2cc1C [Compound 22, 7-[5,6-dimethyl-2-(thiazol-2-yl)-1H-benzo[d]-imidazol-1-yl]quinazoline-2,4-diamine]	–	93.5	≤ 0.125	≤ 0.125	0.002
COc1cc2nc(-c3nccs3)n(-c3cc4nc(N)nc(N)c4cc3Cl)c2cc1OC [Compound 23, 6-chloro-7-(5,6-dimethoxy-2-(thiazol-2-yl)-1H-benzo[d]imidazol-1-yl)quinazo-line-2,4-diamine]	–	320	0.5 (≈ 1.1 µM)	≤ 0.125	0.011
COc1cc2nc(-c3nccs3)n(-c3cc4nc(N)nc(N)c4cc3C)c2cc1OC [Compound 24, 7-(5,6-dimethoxy-2-(thiazol-2-yl)-1H-benzo[d]-imidazol-1-yl)-6-methylquin-azoline-2,4-diamine]	–	170	≤ 0.5	≤ 0.5	0.019
Cc1cc2nc(-c3nccs3)n(-c3cc4nc(N)nc(N)c4cc3Cl)c2cc1C [Compound 25, 6-chloro-7-(5,6-dimethyl-2-(thiazol-2-yl)-1H-benzo[d]imidazol-1-yl)quinazoline-2,4-diamine]	–	7.6	1 (≈ 2.37 µM)	≤ 0.125	0.011
Cc1c(C(=O)OC(C)(C)C)nc(-c2cccs2)n1-c1ccc2c(N)nc(N)nc2c1 [Compound 39, tert-butyl 1-(2,4-diaminoquinazolin-7-yl)-5-methyl-2-thiophen-2-yl)-1H-imidazole-4-carboxylate]	–	–	2 (≈ 4.73 µM)	1 (≈ 2.37 µM)	–

— patent US8835445B2, “Dihydrofolate reductase inhibitors” (Trius Therapeutics, Inc., priority 2010, dated 2014)
